The term half-life denotes the time needed for the level to fall by half in the phase considered.

≈ marks a conversion by molar mass, not a printed value.

We go through four molecules from article PMC6615598, “Novel antibiotics effective against gram-positive and -negative multi-resistant bacteria with limited resistance” (PLoS Biology, 2019).

In data set [1] the test system is S. aureus Mu3 (MRSA). Put plainly: microbe, parasite or virus in culture. The protocol:
(§1) (10−4 M final concentrations). At selected time intervals, 100 μl of reaction mixture was collected, quenched by 200 μl 95% EtOH, and adjusted at pH 2 to prevent peptide adsorption to serum proteins. […] Supernatants were analyzed by RP-HPLC on an Xbridge C18 column with a linear gradient of water, 0.08% TFA, and acetonitrile with 1% TFA. HPLC peak areas were used to calculate the percentages of intact compound remaining at the various time points. MIC and MBC values were determined in triplicate in many ESKAPE clinical isolates, including a dozen MDR S. aureus, by the broth microdilution method. Peptidomimetics and antibiotics were assayed in a concentration range of 1 to 128 μM. The bacterial inoculum (5 × 10^5 colony-forming units [CFUs]/well) was prepared in MHB or CAMHB (150 μl). A Biotek Synergy 2 spectrophotometer was used to record the results after 18–20 h incubation at 35°C (±2°C). […] After every hour of culture for 4 h, serial dilutions were plated on BHI plates and incubated overnight at 37°C, and then the CFUs were counted and expressed as log CFU/ml. Phosphate-buffered saline (PBS)-exposed S. aureus MRSA was included as a control.

The subject of data set [2] is S. aureus Newman. Put plainly: microbe, parasite or virus in culture. How it is done:
as §1

Data set [3] can be described thus: Stability in human serum (half-life). The data set is classed as in vitro ADME. The note with it: 25% human serum, pre-incubated 15 min at 37°C, peptide 10^−4 M, RP-HPLC peak areas, mean of biological triplicates. How it is done:
as §1
(§2) Supplementary file pbio.3000337.s013.docx: S7 Table Peptide half-lives in human and mouse sera. […] Peptide amounts and half-lives were determined by HPLC. Experiments were conducted on 25% human or mouse sera. Values are shown in minutes. The mean values correspond to biological triplicates. HPLC, high pressure liquid chromatography. (DOCX) Click here for additional data file.

In data set [4] the test system is E. faecium Aus0004. Conditions: Aus0004. The protocol:
as §1

A short description of data set [5]: Stability in mouse serum (half-life). The note with it: 25% mouse serum, pre-incubated 15 min at 37°C, peptide 10^−4 M, RP-HPLC peak areas, mean of biological triplicates. The class given is in vitro ADME. How it is done: as §1, §2
The test system of data set [6] is S. aureus N315 (MRSA). Kind of data set: microbe, parasite or virus in culture. The note with it: Staphylococcus aureus, MRSA. How it is done:
as §1

Data set [7] has as its system MRSA. Put plainly: Severe sepsis mouse model, survival. The class given is in vivo. Conditions: mice, approximately 2 × 10^9 CFUs MRSA IV; 4 IV doses of 0.5 mg.kg^−1 at 2, 24, 48, 72 h. The text has this:
Tolerance and toxicity studies were done on male Swiss mice (CD-1 Crl: CD-1 [ICR] IGS; Charles River). These were 7 to 10 weeks old and weighed an average of 37.2 g. All experimental protocols were approved by the Adaptive Therapeutics Animal Care and Use Committee (APAFiS #4508-2016031l15541258 v2). For the sepsis model, we used female Swiss mice (Janvier Labs), 6 to 8 weeks old and weighing approximately 30 g. Experiments were monitored in the ARCHE-BIOSIT animal lab in Rennes, in biological duplicate. We used Groups of 5 mice for the mild and the severe sepsis models with MRSA. Mice were IV inoculated with 150 μl of MRSA suspensions in 0.9% NaCl containing approximately 5 × 10^8 CFUs for the “mild” sepsis and approximately 2 × 10^9 CFUs for the “severe” sepsis, respectively. […] Mice survival was monitored for 4 d (“severe” sepsis) or 14 d (“mild” sepsis), and the statistical significance of difference(s) between the groups was evaluated using the Wilcoxon test. P < 0.05 was considered significant. Two weeks (“mild” sepsis) or 4 d (“severe” sepsis) after inoculation, mice were euthanized with CO2.

Data set [8] has as its system MRSA (Mu3). Kind of data set: microbe, parasite or virus in culture. How it is done: (§3) For 15 d in MHB, MICs were determined daily for each pseudopeptide and their antibiotic controls. This was done using cells from the well in which the compound concentration was one-half of the MIC (1/2MIC). For each compound, the 1/2MIC well from the previous day’s MIC assay plate was re-suspended and the bacteria grown to a density of about 10^8 cells ml−1. The suspension was diluted in MHB or CAMHB (10^6 cells/ml) and then used to determine the MIC of the same compound determined by micro broth dilution. All MIC measurements were performed in duplicate. Aliquots of the 5 × 10^4 cell/ml dilutions for each 1/2MIC well were periodically plated on MHB and incubated at 35°C for 18 h to verify cell density by colony counts and for visual inspection of colony phenotypes. To control compound stability, peptide solution MICs were determined during and at the end of the 15 d and were compared to cells unexposed to antibiotics. In vivo resistance was also assessed in treated mice (1.5 mg.kg^−1) for 4 d (sepsis) or 6 d (skin abscesses). […] The broth microdilution method was performed as per EUCAST recommendations on 5 independent colonies per mouse (3 mice per set, 15 colonies per drug tested). For severe sepsis and subcutaneous abscesses, in vivo resistance was determined by plating aliquots of crude kidney extracts or abscesses on plates containing 1-, 2-, 4-, or 8-fold the peptide MICs 7 or 3 d post infections, respectively.

Data set [9] deals with MSSA (Newman). Put plainly: microbe, parasite or virus in culture. Conditions: Staphylococcus aureus. The protocol:
as §3

Data set [10] deals with MRSA (Mu3). Put plainly: microbe, parasite or virus in culture. The note with it: Staphylococcus aureus, MRSA. How it is done:
as §3

The subject of data set [11] is S. aureus BCB/POE. Kind of data set: microbe, parasite or virus in culture. Conditions: Staphylococcus aureus. The protocol: as §1
(§4) Supplementary file pbio.3000337.s007.docx: S1 Table Antibacterial activity of the 4 peptidomimetics focusing on 9 S. aureus MDR clinical isolates. Clinical isolates BCB/POE and 740404 DUN are from human sepsis. The other strains are from catheter infections or suppurating wounds. Brilacidin was used as a control. MDR, multidrug resistant. (DOCX) Click here for additional data file.

For data set [12], the system named is S. aureus PM64. Kind of data set: microbe, parasite or virus in culture. The note with it: Staphylococcus aureus, PM64. The protocol: as §1, §4
The test system of data set [13] is S. aureus COB. Kind of data set: microbe, parasite or virus in culture. The note with it: Staphylococcus aureus. The protocol: as §1, §4
Data set [14] relates to S. aureus 66534 E. Kind of data set: microbe, parasite or virus in culture. Conditions: Staphylococcus aureus. The protocol:
as §1, §4

For data set [15], the system named is S. aureus 33845. Kind of data set: microbe, parasite or virus in culture. Conditions: Staphylococcus aureus. How it is done:
as §1, §4

Data set [16] deals with S. aureus FORT. Kind of data set: microbe, parasite or virus in culture. Conditions: Staphylococcus aureus. How it is done: as §1, §4
The test system of data set [17] is S. aureus ROUS. Put plainly: microbe, parasite or virus in culture. Conditions: Staphylococcus aureus. The protocol:
as §1, §4

Data set [18] has as its system S. aureus 702697 HOU. Kind of data set: microbe, parasite or virus in culture. The note with it: Staphylococcus aureus. How it is done:
as §1, §4

In data set [19] the test system is S. aureus 740404 DUN. Kind of data set: microbe, parasite or virus in culture. The note with it: Staphylococcus aureus. The protocol:
as §1, §4

The test system of data set [20] is Escherichia coli 13090. How it is done:
as §1

Data set [21] has as its system Escherichia coli K12. The note with it: E. coli K12. The protocol: as §1
Data set [22] has as its system P. aeruginosa 15643. How it is done:
as §1

Data set [23] deals with P. aeruginosa PA14. Conditions: P. aeruginosa PA14. How it is done:
as §1

For data set [24], the system named is Escherichia coli ML35P. Conditions: E. coli ML35P. How it is done: as §1
In data set [25] the test system is P. aeruginosa LESB58. Kind of data set: Cutaneous abscess mouse model (CFU). The data set is classed as in vivo, mice. Conditions: mice, P. aeruginosa LESB58; 9 mg.kg^−1 subcutaneous multiple doses; day 3. The protocol: For the cutaneous abscess model, the mice were randomly divided into 5 sets. The mice were anesthetized with isoflurane, their dorsal fur shaved, and their skin disinfected with 70% ethanol. An overnight culture of S. aureus MRSA or P. aeruginosa LESB58 was washed with 0.9% NaCl, and then a subcutaneous injection of 2 × 10^9 CFUs and an equal amount of sterile Cytodex microcarrier beads (20 mg.ml^−1, Sigma) for S. aureus MRSA, or 10^8 CFUs for P. aeruginosa were injected into the shaved area. […] Mice were monitored every day and then euthanized with CO2 on Day 6 or on Day 3. Abscesses were excised, measured, and homogenized in PBS using an Ultra-Turax. Serial dilutions of the samples were plated on BHI (MRSA) or 2YT medium (LESB58) plates and then incubated overnight at 37°C. Afterward, the CFUs were counted and expressed as log CFU/ml. Dermonecrosis areas were calculated according to the formula π × L × W. ATP levels were determined with an ATP assay kit (Promega) according to manufacturer instructions on sets of 5 colonies harboring the SCV phenotype, and sets of 5 colonies harboring a normal phenotype, after growth on BHI plates.

In data set [26] the test system is P. aeruginosa LESB58. Conditions: P. aeruginosa strain LESB58; biological triplicates. The protocol: as §1, with “μM.” for “μM. The bacterial inoculum (5 × 10^5 colony-forming units [CFUs]/well) was prepared in MHB or CAMHB (150 μl). A Biotek Synergy 2 spectrophotometer was used to record the results after 18–20 h incubation at 35°C (±2°C).”, “Phosphate-buffered saline (PBS)-exposed S. aureus MRSA was included as a control.” left out
For 15 d in MHB, MICs were determined daily for each pseudopeptide and their antibiotic controls. […] The suspension was diluted in MHB or CAMHB (10^6 cells/ml) and then used to determine the MIC of the same compound determined by micro broth dilution. […] To control compound stability, peptide solution MICs were determined during and at the end of the 15 d and were compared to cells unexposed to antibiotics. In vivo resistance was also assessed in treated mice (1.5 mg.kg^−1) for 4 d (sepsis) or 6 d (skin abscesses). […]

Setting [27] is: broth microdilution, 3 independent experiments.

On to `CCCCCCCCCC(=O)N[C@@H](Cc1c[nH]c2ccccc12)C(=O)N[C@H](CC(N)=O)C(=O)N[C@@H](CC(=O)O)C(=O)N[C@@H]1C(=O)NCC(=O)N[C@@H](CCCN)C(=O)N[C@@H](CC(=O)O)C(=O)N[C@H](C)C(=O)N[C@@H](CC(=O)O)C(=O)NCC(=O)N[C@H](CO)C(=O)N[C@@H]([C@H](C)CC(=O)O)C(=O)N[C@@H](CC(=O)c2ccccc2N)C(=O)O[C@@H]1C` [Daptomycin, daptomycin, reference compound], for which the results for the MIC in data set [1] (Mu3), in [2] (Newman) and in [4] were 0.5 (1) μM, 0.25 (0.5) μM and 0.5 (1) μM, respectively. In addition, the half-life in data set [3] was 52.3 ± 6.67 h; in data set [5], above 58.3 h.
In the case of `CN[C@H](CC(C)C)C(=O)N[C@H]1C(=O)N[C@@H](CC(N)=O)C(=O)N[C@H]2C(=O)N[C@H]3C(=O)N[C@H](C(=O)N[C@H](C(=O)O)c4cc(O)cc(O)c4-c4cc3ccc4O)[C@H](O)c3ccc(c(Cl)c3)Oc3cc2cc(c3O[C@@H]2O[C@H](CO)[C@@H](O)[C@H](O)[C@H]2O[C@H]2C[C@](C)(N)[C@H](O)[C@H](C)O2)Oc2ccc(cc2Cl)[C@H]1O` [Vancomycin, vancomycin], the MIC in data set [1] (Staphylococcus aureus, MRSA) was 1 µM; in [2] (Staphylococcus aureus, NEWMAN), 0.5 µM; in data set [6], 2 µM; in [8] (MRSA (Mu3), d14 of serial passages at sub-MIC), 1 (1.4) μM; in data set [8] (Staphylococcus aureus, MRSA), 1 µM (≈ 1.45 µg/mL); in [9] (MSSA (Newman), d0 of serial passages) it was 0.5 µM (≈ 0.725 µg/mL). Also, the MIC is 1 µM (≈ 1.45 µg/mL) in [9] (MSSA|NEWMAN, d14 of serial passages at sub-MIC); 1 µM (≈ 1.45 µg/mL) in data set [10]; 1 µM (≈ 1.45 µg/mL) in data set [10] (24 h). In addition, in data set [7], the “Survival in severe sepsis” value is “much less effective”.
As to `N=C(N)NCCCCC(=O)Nc1cc(C(F)(F)F)cc(NC(=O)c2cc(C(=O)Nc3cc(C(F)(F)F)cc(NC(=O)CCCCNC(=N)N)c3O[C@@H]3CCNC3)ncn2)c1O[C@@H]1CCNC1` [brilacidin, reference compound], the “Survival in severe sepsis” value in data set [7] is on record as “cured the infected animals”. Further, the MIC in data set [11], in data set [12], in data set [13], in data set [14], in [15] and in data set [16] was 1 µg/mL in each case. In addition, the MIC in data set [17], in data set [18] and in [19] was 1 µg/mL each time.
On to colistin, for which the MBC/MIC was 1 in data set [20] (E. coli 13090); 1 in [21]; 2 in data set [22] (P. aeruginosa 15643); 2 in data set [23]; 1 in data set [24]. In addition, the MIC in [20] (E. coli 13090, clinical strain, Caen hemoculture, broth microdilution, 3 independent experiments) was 1 (1.3) μM; in data set [21] (setting [27]), 0.5 (0.65) μM; in data set [22] (P. aeruginosa 15643, clinical strain, Caen hemoculture, broth microdilution, 3 independent experiments), 0.5 (0.65) μM; in data set [23] (setting [27]), 0.5 (0.65) μM; in data set [24] (setting [27]), 0.5 (0.65) μM; in [26] it was 1 µM. Also, the “Number of bacteria in abscess” value in data set [25] is listed as “lowered the number of bacteria”.
